Legend:
[1] = target: T1, melanocortin MC-4 receptor (Homo sapiens, UniProt P32245); experiment: Melanocortin MC-4 Receptor Binding Assay (SPA)
T1 construct: purchased Receptor Biology Inc
Experimental: Melanocortin MC-4 Receptor Binding Assay Melanocortin [MC-4]-membrane [purchased from Receptor Biology Inc] was coupled to wheat germ agglutinin coated polyvinyl toluene-Scintillation Proximity Assay beads [purchased from Amersham Pharmacia Inc.] for 30 min at 25° C. Into each well of a 96-well Opti plate [purchased from Packard, Calif.], 2.5 μg of membrane and 0.25 mg of beads were mixed in a volume of 100 μL media. […] Test compounds (1.5 μL) at 1 mM in 30% DMSO-50 mM HEPES, pH 7.4 buffer was added to separate wells on the plate. Radioactive ligand ^125I-NDP-melanocyte stimulating hormone [NEN, 2000Ci/mmol] was added to each well (48.5 μL per well, 40 pM final concentration). The plate was then sealed and let stand for 16 hr at 25° C. NDP-Melanocyte stimulating hormone peptide and α-melanocyte stimulating hormone peptide [purchased from Palomar Research Inc, 1 μM] were used as reference inhibitor compounds to define non-specific binding (N). Total binding (T) was defined using 30% DMSO-50 mM HEPES, pH 7.4 buffer. Bound radioactivity for each well (Y), measured at counts per minute (cpm) was measured in a TopCount [Packard, Calif.]. Percent inhibition was calculated as: […] The procedures described above for the melanocortin MC-4 receptor were repeated for the melanocortin MC-3 receptor. Following the procedures described, representative compounds of the present invention were tested for binding in the MC-4 and/or MC-3 assay, as listed in Table 4.

[2] = system: Hippocampal Cells; experiment: Neurite Cell Outgrowth Assay, hippocampal cells; format: cell-based; details: Rattus norvegicus; 50 nM; percent change over the vehicle response; NA = no change/not active
Description: (§1) Dissociated hippocampal and cortical cell cultures were established from embryonic day 18 rat fetuses as described by Mattson, M. P., Barger, S. W., Begley, J, and Mark, R. J., Methods Cell Biol., 1994, 46:[…]. Briefly, fetuses were removed via cesarean section from pregnant moms (Sprague-Dawley) and anesthetized with halothane according to the AVMA Panel on Euthanasia. Pups were decapitated and the brains were removed and placed in HEPES-buffered Hank's Balanced Salt solution (HBSS; Gibco). The hippocampi and cortices were dissected out and pooled according to tissue-type. Tissue was trypsinized for 15 min (1 mg/ml trypsin-HBSS; Worthington), rinsed with fresh HBSS, incubated in trypsin inhibitor (1 mg/ml; Sigma) for 5 min, rinsed again with fresh HBSS and then triturated in 1 ml fresh HBSS with a fire-polished glass pipette. Dissociated cells were seeded at 30,000 cells/well onto poly-D-lysine coated 96-well plates (Collaborative BioScience). Each well contained 100 μl of Eagle's Minimal Essential Media (MEM; Gibco) supplemented with 26 mM NaHCO3 (Sigma), 56 mM glucose (Sigma), 15 mM KCl (Sigma), 1 mM sodium pyruvate (Sigma), 1.1 mM L-glutamine (Sigma), 10% (v/v) heat-inactivated fetal bovine serum (Hyclone), and 0.001% gentamicin sulfate (Sigma) (pH 7.4). Cells were allowed to attach for 24 h in a humidified 37° C. 5% CO2 incubator before experimental treatment. The culture media was aspirated and exchanged with fresh media every 3 days.
(§2) Twenty-four hours after plating, cultures were treated with vehicle (PBS+0.1% BSA), alpha-melanocyte stimulating hormone (α-MSH) or test compound (diluted in DPBS). Each treatment condition was run in quadruplicate. On the third day in culture, the media was aspirated off and replaced with fresh media and test compound. At one week in culture, the cells were fixed with 10% phosphate-buffered formalin for 15 min, then rinsed with DPBS (Sigma) and placed in blocking serum for 30 min (horse serum; 1:50 dilution in DPBS; Vector Labs). The cultures were rinsed again with DPBS and then incubated in primary antibody for 2 hr (microtubule-associated protein-2 (MAP-2) is a selective marker for dendritic processes; anti-mouse monoclonal (Chemicon); 1:1000 dilution of MAP-2 in antibody diluent (Zymed)). Negative control wells were incubated in antibody diluent alone. Background signal was determined by blank wells (cell-free) incubated with or without antibody. Cultures were rinsed again with DPBS and then placed in fluorescein for 1 hr (FITC; anti-mouse IgG; rat adsorbed; 1:50 dilution in DPBS; Vector Labs). Cultures were rinsed a final time with DPBS and the plates were then read on a Cytofluor 4000 fluorescence plate reader. Neurite outgrowth was expressed as percent change from control (vehicle).
(§3) The data are expressed as percent change over the vehicle response. All compounds were screened at 50 nM. The abbreviation NA indicates no change/not active; the abbreviation ND indicates a compound not tested/response not determined.

[3] = system: Cortical Cells; experiment: Neurite Cell Outgrowth Assay, cortical cells; format: cell-based; details: Rattus norvegicus; 50 nM; percent change over the vehicle response; NA = no change/not active
Description: as §1, §2, §3

T1 sequence (P32245 whole entry): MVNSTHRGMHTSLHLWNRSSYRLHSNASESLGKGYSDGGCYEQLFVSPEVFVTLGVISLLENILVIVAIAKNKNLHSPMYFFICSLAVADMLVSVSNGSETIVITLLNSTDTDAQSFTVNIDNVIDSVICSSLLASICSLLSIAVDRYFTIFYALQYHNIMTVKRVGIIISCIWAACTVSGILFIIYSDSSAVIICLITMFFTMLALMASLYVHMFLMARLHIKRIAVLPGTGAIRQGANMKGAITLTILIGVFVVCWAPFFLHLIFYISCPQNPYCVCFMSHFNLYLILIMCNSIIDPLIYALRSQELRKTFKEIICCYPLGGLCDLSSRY

## COc1ccccc1Nc1nc(-c2ccccc2)[n+](-c2ccccc2Cl)s1 [Compound 44]
[1]
  IC50: 89 nM
[2]
  activation at 0.05 µM: 43%
[3]
  activation at 0.05 µM: 19%

## COc1ccc(-c2nc(Nc3ccccc3)s[n+]2-c2ccc(OC)cc2)cc1 [Compound 57]
[1]
  IC50 MC-4 (nM) (SPA): inactive
[2]
  activation at 0.05 µM: 9%

## COc1ccccc1-c1nc(Nc2cccnc2)s[n+]1-c1ccccc1OC [Compound 81]
[1]
  IC50: 672 nM

## COc1ccc(-c2nc(Nc3ccccc3Cl)s[n+]2-c2ccc(OC)cc2)cc1 [Compound 63]
[1]
  IC50: 1000 nM
[2]
  activation at 0.05 µM: 20%
[3]
  activation at 0.05 µM: 17%

## COc1ccc(Nc2nc(-c3ccc(OC)cc3)[n+](-c3ccc(OC)cc3)s2)cc1 [Compound 58]
[1]
  IC50 MC-4 (nM) (SPA): inactive
[2]
  activation at 0.05 µM: 72%
[3]
  activation at 0.05 µM: 10%

## Clc1ccc(Nc2nc(-c3ccccc3)[n+](-c3ccccc3Cl)s2)cc1 [Compound 47]
[1]
  IC50: 874 nM
[2]
  activation at 0.05 µM: 20%
[3]
  activation at 0.05 µM: 13%

## COc1ccccc1-[n+]1sc(Nc2ccc(Cl)cc2)nc1-c1ccccc1 [Compound 33]
[1]
  IC50: 91 nM
[3]
  activation at 0.05 µM: 21%

## COc1ccccc1Nc1nc(-c2ccccc2)[n+](-c2ccccc2)s1 [Compound 24]
[1]
  IC50: 76 nM
[2]
  activation at 0.05 µM: 10%
[3]
  activation at 0.05 µM: 16%

## COc1ccc(-[n+]2sc(Nc3ccc(Cl)cc3)nc2-c2ccccc2)cc1 [Compound 40]
[1]
  IC50: 133 nM
[2]
  activation at 0.05 µM: 26%

## COc1ccc(-c2nc(Nc3cccnc3)s[n+]2-c2ccc(OC)cc2)cc1 [Compound 64]
[1]
  IC50: 1200 nM
[2]
  activation at 0.05 µM: 22%
[3]
  activation at 0.05 µM: 12%

## COc1ccc(-[n+]2sc(Nc3ccccc3OC)nc2-c2ccccc2)cc1 [Compound 37]
[1]
  IC50: 72 nM
[3]
  activation at 0.05 µM: 26%

## COc1ccc(Nc2nc(-c3ccccc3)[n+](-c3ccccc3)s2)cc1 [Compound 23]
[1]
  IC50: 124 nM
[2]
  activation at 0.05 µM: 10%
[3]
  activation at 0.05 µM: 20%

## COc1ccccc1Nc1nc(-c2ccccc2)[n+](-c2ccccc2OC)s1 [Compound 30]
[1]
  IC50: 103 nM

## COc1ccc(-[n+]2sc(Nc3ccc(C)cc3)nc2-c2ccccc2)cc1 [Compound 38]
[1]
  IC50: 159 nM

## COc1ccc(-[n+]2sc(Nc3ccccc3)nc2-c2ccccc2)cc1 [Compound 35]
[1]
  IC50: 100 nM
[3]
  activation at 0.05 µM: 28%

## Cc1ccccc1Nc1nc(-c2ccccc2)[n+](-c2ccccc2Cl)s1 [Compound 46]
[1]
  IC50: 368 nM
[2]
  activation at 0.05 µM: 40%
[3]
  activation at 0.05 µM: 19%

## COc1ccccc1-[n+]1sc(Nc2ccc(C)cc2)nc1-c1ccc(C)cc1 [Compound 68]
[1]
  IC50: 110 nM

## c1ccc(Nc2nc(-c3ccccc3)[n+](-c3ccccc3)s2)cc1 [Compound 22]
[1]
  IC50: 124 nM
[3]
  activation at 0.05 µM: 30%

## COc1ccc(-[n+]2sc(Nc3ccccc3C)nc2-c2ccccc2)cc1 [Compound 39]
[1]
  IC50: 146 nM

## Clc1ccccc1-[n+]1sc(Nc2ccccc2)nc1-c1ccccc1 [Compound 42]
[1]
  IC50: 482 nM
[2]
  activation at 0.05 µM: 26%

## Clc1ccccc1CNc1nc(-c2ccccc2)[n+](-c2ccccc2)s1 [Compound 56]
[1]
  IC50: 3000 nM
[2]
  activation at 0.05 µM: 33%

## Cc1ccc(Nc2nc(-c3ccccc3)[n+](-c3ccccc3)s2)cc1 [Compound 25]
[1]
  IC50: 57 nM
[3]
  activation at 0.05 µM: 23%

## COc1ccccc1-[n+]1sc(Nc2cccnc2)nc1-c1ccccc1 [Compound 73]
[1]
  IC50: 725 nM

## COc1ccc(Nc2nc(-c3ccccc3)[n+](-c3ccccc3Cl)s2)cc1 [Compound 43]
[1]
  IC50: 237 nM
[2]
  activation at 0.05 µM: 30%
[3]
  activation at 0.05 µM: 37%

## COc1ccc(-c2nc(Nc3ccccc3C)s[n+]2-c2ccc(OC)cc2)cc1 [Compound 61]
[1]
  IC50 MC-4 (nM) (SPA): inactive
[2]
  activation at 0.05 µM: 66%
[3]
  activation at 0.05 µM: 17%

## COc1ccccc1-c1nc(Nc2ccc(Cl)cc2)s[n+]1-c1ccccc1OC [Compound 79]
[1]
  IC50: 216 nM

## Cc1ccc(Nc2nc(-c3ccccc3)[n+](-c3ccccc3Cl)s2)cc1 [Compound 45]
[1]
  IC50: 246 nM
[2]
  activation at 0.05 µM: 46%
[3]
  activation at 0.05 µM: 25%

## COc1ccccc1CNc1nc(-c2ccccc2)[n+](-c2ccccc2)s1 [Compound 52]
[1]
  IC50: 1000 nM
[2]
  activation at 0.05 µM: 65%

## Clc1ccccc1Nc1nc(-c2ccccc2)[n+](-c2ccccc2Cl)s1 [Compound 48]
[1]
  IC50: 444 nM
[3]
  activation at 0.05 µM: 19%

## COc1ccccc1-c1nc(Nc2ccccc2C)s[n+]1-c1ccccc1OC [Compound 78]
[1]
  IC50: 99 nM

## COc1ccc(Nc2nc(-c3ccccc3)[n+](-c3ccc(OC)cc3)s2)cc1 [Compound 36]
[1]
  IC50: 79 nM
[3]
  activation at 0.05 µM: 16%

## COc1ccccc1-[n+]1sc(Nc2ccccc2Cl)nc1-c1ccc(C)cc1 [Compound 71]
[1]
  IC50: 234 nM

## COc1ccccc1-c1nc(Nc2ccc(C)cc2)s[n+]1-c1ccccc1OC [Compound 77]
[1]
  IC50: 4.4 nM

## COc1ccccc1-[n+]1sc(Nc2ccccc2)nc1-c1ccccc1 [Compound 28]
[1]
  IC50: 68 nM
[3]
  activation at 0.05 µM: 25%

## COc1ccc(CNc2nc(-c3ccccc3)[n+](-c3ccccc3)s2)cc1 [Compound 51]
[1]
  IC50: 1000 nM
[2]
  activation at 0.05 µM: 74%
[3]
  activation at 0.05 µM: 28%

## Cc1ccccc1CNc1nc(-c2ccccc2)[n+](-c2ccccc2)s1 [Compound 54]
[1]
  IC50: 800 nM
[2]
  activation at 0.05 µM: 45%

## COc1ccc(-c2nc(Nc3ccc(Cl)cc3)s[n+]2-c2ccc(OC)cc2)cc1 [Compound 62]
[1]
  IC50 MC-4 (nM) (SPA): inactive
[2]
  activation at 0.05 µM: 13%
[3]
  activation at 0.05 µM: 13%

## COc1ccc(-[n+]2sc(Nc3ccccc3Cl)nc2-c2ccccc2)cc1 [Compound 41]
[1]
  IC50: 483 nM
[2]
  activation at 0.05 µM: 36%
[3]
  activation at 0.05 µM: 5%

## Clc1ccc(CNc2nc(-c3ccccc3)[n+](-c3ccccc3)s2)cc1 [Compound 55]
[1]
  IC50: 800 nM
[2]
  activation at 0.05 µM: 19%

## COc1ccc(-c2nc(Nc3ccccc3OC)s[n+]2-c2ccc(OC)cc2)cc1 [Compound 59]
[1]
  IC50 MC-4 (nM) (SPA): inactive
[2]
  activation at 0.05 µM: 61%
[3]
  activation at 0.05 µM: 21%

## COc1ccc(Nc2nc(-c3ccc(C)cc3)[n+](-c3ccccc3OC)s2)cc1 [Compound 66]
[1]
  IC50: 120 nM

## COc1ccccc1-[n+]1sc(Nc2ccccc2C)nc1-c1ccc(C)cc1 [Compound 69]
[1]
  IC50: 139 nM

## COc1ccccc1-[n+]1sc(Nc2ccccc2)nc1-c1ccc(C)cc1 [Compound 65]
[1]
  IC50: 114 nM

## COc1ccc(Nc2nc(-c3ccccc3OC)[n+](-c3ccccc3OC)s2)cc1 [Compound 75]
[1]
  IC50: 103 nM

## COc1ccc(-c2nc(Nc3ccc(C)cc3)s[n+]2-c2ccc(OC)cc2)cc1 [Compound 60]
[1]
  IC50 MC-4 (nM) (SPA): inactive
[2]
  activation at 0.05 µM: 66%
[3]
  activation at 0.05 µM: 14%

## COc1ccccc1-[n+]1sc(Nc2cccnc2)nc1-c1ccc(C)cc1 [Compound 72]
[1]
  IC50: 155 nM

## Cc1ccc(CNc2nc(-c3ccccc3)[n+](-c3ccccc3)s2)cc1 [Compound 53]
[1]
  IC50: 1000 nM
[2]
  activation at 0.05 µM: 67%

Source: patent US7049331B2, “1,2,4-thiadiazole derivatives as melanocortin receptor modulators” (Ortho-McNeil Pharmaceutical, Inc., priority 2001, dated 2006)
